Columns and labels:
[1] = test system: A549 human lung cancer cell line harboring constitutively active Ras mutant; experiment: MTT growth inhibition assay, A549; assay type: cell-based; conditions: A549, MTT
Procedure: (§1) MCF-7 (breast cancer), T47D (breast cancer), Colo 205 (colon cancer), JM-1 (rat hepatoma), Sk Mel-2 (melanoma), PLC (human hepatoma), and HepG2 (human hepatoma) were obtained from American Type Cell Culture Collection. MCF-7 cells were grown in RPMI medium supplemented with 10% Fetal Bovine Serum. The remaining cell lines were grown in DMEM medium supplemented with 10% Fetal Bovine Serum. For the assay, cells were seeded into 96 well plates in medium containing 1% Fetal Bovine Serum and 100 μL of a cell suspension containing 5000 cells per well were used for each well. Cell growth was evaluated utilizing MTT ((3-(4,5-Dimethylthiazol-2-yl)-2,5-diphenyltetrazolium). The absorbance of the wells at 544 nm was determined by a FLUOstar/POLARstar Galaxy (BMG Lab Technologies GmbH) microplate reader.
(§2) The growth inhibitory activity of compounds was compared using the A549 human lung cancer cell line harboring constitutively active G12D Ras mutant with the help of an MTT assay. […] Stepwise extensions and truncations confirmed that the peptide had the optimal length (see Table 1).
(§3) The growth inhibitory activity of compounds was compared using the A549 human lung cancer cell line harboring constitutively active G12D Ras mutant with the help of an MTT assay.

[2] = test system: HCC15 cells; experiment: Cell migration, Boyden Chambers; assay type: cell-based; conditions: IC25 concentration
Procedure: (§4) The rate of migration and invasion was determined using Boyden Chambers (Millipore) in accordance with the manufacturer's protocol.

[3] = test system: HCC15 cells; experiment: Cell invasion, Boyden Chambers; assay type: cell-based; conditions: IC25 concentration
Procedure: Cell invasion assays were performed using the BD Biocoat Matrigel Invasion Chambers in accordance with the manufacturer's protocol. Cells (1×10^5/mL) were seeded onto 12-well cell culture chamber using inserts with 8 μm pore size polycarbonate membrane over a thin layer of Matrigel Basement Membrane Matrix without phenol red (BD Biosciences) diluted at 1:100 in PBS. Following incubation of the plates for 48 hours at 37° C., cells that invaded through the Matrigel and migrated to the lower surface of the membrane were stained with Giemsa solution, counted under the microscope in at least 10 different fields, and photographed. Three wells were examined for each condition and cell type, and the experiments were repeated in triplicate.
as §4

[4] = test system: HCC15 cells; experiment: Wound closure assay; assay type: cell-based
[5] = test system: H358 human lung cancer cells with mutated K-Ras; experiment: H358 tumor growth in nude mice; assay type: in vivo
Source text: 2×10^6 H358 human lung cancer cells with mutated K-Ras were implanted subcutaneously (s.c.) in nude mice.

[6] = test system: activated (GTP-bound) Ras in H358 human lung cancer cells; experiment: Raf-RBD pull-down of active (GTP-bound) Ras; assay type: cell-based; conditions: 5 μM, varying exposure times
Procedure: H358 human lung cancer cells were grown in 6-well plates in DMEM medium containing 10% FBS. When the cells were about 70% confluent, the medium was replaced with DMEM containing 1% FBS. Two hours later, Ras inhibitors (kR-H6-48, HR-1, kR-4A-4, or kR-4B-2) were added to provide a final concentration of 5 μM.
After varying exposure times, the cells were rinsed with PBS and lysed. The lysates were cleared by centrifugation, incubated with immobilized Raf-RBD beads (which bind Ras) and analyzed by Western blot using manufacturer's protocols (Cytoskeleton, Inc., Denver, Colo.; Catalog No. BK008). The bands corresponding to active (GTP-bound) Ras were quantified with the help of MIPAV software.

[7] = test system: Ras protein in H2009 and H2592 cells; experiment: Western blot of Ras protein amount in cancer cells; assay type: cell-based; conditions: 0-3.0 μM, 18 hours
Procedure: A further experiment was undertaken to determine the effect of analogs of helix 6 and HVR on the amount of K-Ras protein in cancer cells. H2009 (lung adenocarcinoma cells) and H2592 (plural mesothelioma cells) were exposed to varying concentrations (0-3.0 μM) of kR-4A-3, kR-4B-3, or kR-H6-3 for 18 hours. The cells then were lysed and the lysate was analyzed by Western blot using anti-Ras mAb (Cell Biolabs, Inc.).

[8] = target: K-Ras in H2592 cells (Homo sapiens, UniProt P01116); conditions: GI50 concentrations, 18 hours
Source text: Goat anti-mouse antibodies with Alexa Fluor TM 594 (red) were used to visualize the anti-Ras mouse mAb.

[9] = test system: A549 human lung cancer cell line harboring constitutively active G12D Ras mutant; experiment: MTT growth inhibition assay, A549; assay type: cell-based
Procedure: as §1, §2, §3

[10] = test system: DPPC bilayers containing 5% DPPE stabilized by MSP1 scaffold protein (nanodiscs); experiment: SPR membrane binding to phospholipid bilayer nanodiscs
Procedure: Dipalmitoylphosphatidylcholine (DPPC) bilayers containing 5% dipalmitoyldiphosphatidylethanolamine (DPPE) stabilized by MSP1 scaffold protein were prepared. […] The preparation procedure involved mixing DPPC lipids with MSP1 at a 90:1 molar ratio in the presence of 100 mM cholate. Cholate was removed by slow dialysis. The assembled nanodiscs were purified by size-exclusion chromatography on a calibrated Superdex 200 column and immobilized on a surface plasmon resonance (SPR) sensor chip.
The presence of a primary amine group in DPPE provided a convenient site for cross-linking of nanodiscs to an SPR sensor chip. The noncross-linked dextran in the sample and reference cells was blocked by the coupling reagent. Four different peptides were used to study membrane binding by SPR. […] The HVR peptide lacks post-translational modifications present in K-Ras4B. The second peptide is the HVR peptide conjugated to S-farnesyl L-cysteine methyl ester via a bifunctional cross-linker Sulfosuccinimidyl-4-(N-maleimidomethyl)cyclohexane-1-carboxylate (Sulfo-SMCC) (Pierce). The other two peptides were kR-4A-C1 and kR-4B-C1.
In this situation determination of true dissociation constants was not feasible. Instead, the data were analyzed using the Hill equation. The Hill coefficient describes the degree of binding cooperativity.

[11] = test system: Ras-dependent cancer cells (H358, SKBR3, SKOV3, ID8, MPR-178); experiment: MTT growth assay on Ras-dependent cancer cells; assay type: cell-based, human, murine; conditions: 48 hours, 1% FBS
Procedure: Ras-dependent cancer cells (H358 human lung cancer cells, SKBR3 human breast cancer cells, SKOV3 human ovarian cancer cells, ID8 murine ovarian cancer cells, and MPR-178 murine prostate cancer cells) were grown in DMEM medium containing 1% FBS and exposed to varying concentrations of Ras inhibitors (kR-H6-48 and HR-1) for 48 hours. Cell growth was evaluated utilizing an MTT ((3-(4,5-Dimethylthiazol-2-yl)-2,5-diphenyltetrazolium) assay. The absorbance of the wells at 544 nm was determined by a FLUOstar/POLARstar Galaxy (BMG Lab Technologies GmbH, Ortenberg, Germany) microplate reader. The assays were performed on untreated (control) and test cells. Cellular responses were calculated from the data using the following formula: 100×[(T−T0)/(C−T0)] for T>T0 and 100×[(T−T0)/T0] for T<T0, wherein T0 corresponds to cell density at the time of drug addition.

[12] = test system: human lung tumor cell lines (A549, H460, and H1944) and a mouse astrocytoma cell line (187436 tu2) expressing mutated K-Ras; experiment: Growth inhibition in cell lines expressing mutated K-Ras (FIGS. 2 and 3); assay type: cell-based; conditions: A549, H460, H1944, 187436 tu2
Source text: The cell line was generated from astrocytoma developed in a transgenic mouse harboring a G12D mutation in K-Ras and inactivation of the Rb gene.

Substance | GI50 ([1]; Table 1 helix 6 derivatives) [nM] | other results
Ac-YQRKQRVLTYFK-e-Pal (all D) [kR-H6-13] | 60 | –
Lau-YQRVQRVLTYF (all D) [kR-H6-38] | 15 | –
Pal-e-KAFYTLVREIRQY [kR-H6-10] | 300 | –
Lau-YQRVQRVLTYFA (all D) [kR-H6-47] | 1 ± 1 | –
Pal-e-KAFYTLVREIRKHK [kR-H6-18] | > 1000 | –
Ac-TPGLNVKIKKK-e-Pal [kR-4A-6] | – | GI50 ([1]; Table 2 HVR derivatives): > 10000 nM
Ac-RYQRIQRVLTYFK-e-Pal (all D) [kR-H6-32] | 10 ± 4 | –
Ac-RLKKISKEEKTPGSVKIKKK-e-Pal [kR-4A-1] | – | cell migration (average number of cells migrated) [2]: inhibition of NCC15 cell migration; GI50 ([1]; Table 2 HVR derivatives): 3100 nM; cell invasion (average number of cells migrated) [3]: inhibition of HCC15 cell invasion; cell motility (average closure) [4]: inhibition of HCC15 cell motility
Ac-KKKSKTKK-e-Pal [kR-4B-8] | – | tumor weight at the time of sacrifice ([5]; 10 mg/kg s.c. every second day for 20 days, control 1.21 g): 0.35 g; tumor growth ([5]; 10 mg/kg s.c. near the tumor every second day for 20 days): abolished the growth; GI50 ([1]; Table 2 HVR derivatives): 2300 nM
Pal-KTKSKKKKK-NH2 All-D [kR-4B-6] | – | GI50 ([1]; Table 2 HVR derivatives): 1700 nM
Ac-KLNSKDGKKKKKKSKTKK-e-Pal [kR-4B-2] | – | GTP-bound Ras (fraction of control) [6]: reduction in activated (GTP-bound) Ras
Pal-e-KFYTLVREIRQYR [kR-H6-12] | 180 | –
Pal-e-KAFYTLVREIRQYRL [kR-H6-27] | 280 ± 30 | –
Pal-YQRIQRVLTYF (all D) [kR-H6-34] | 18 ± 5 | –
Pal-YQRIQRVLTYFA (all D) [kR-H6-21] | 30 | –
Ac-Doa-VEDAFYTLVREIRQYR [kR-H6-5] | 3300 | –
Ac-KTPGAVKIKKK-e-Pal [kR-4A-5] | – | GI50 ([1]; Table 2 HVR derivatives): 5000 nM
e-Pal-KRYQRIERVLTYFADEV (all D) [kR-H6-3] | > 5000 | amount of Ras protein [7]: reduced the amount of Ras protein in lung cancer cells in a concentration-dependent manner; Ras protein levels by immunostaining [8]: reduction in protein levels; pattern of K-Ras distribution [8]: lack of characteristic punctuate pattern of K-Ras distribution
Ac-RYQRIQRVLTYFAK-e-Pal (all D) [kR-H6-30] | 10 ± 5 | additional fold reduction in GI50 ([9]; Glu162 replaced with Gln): 1.7 fold
Ac-PGLNVKIKKK-e-Pal [kR-4A-7] | – | GI50 ([1]; Table 2 HVR derivatives): > 10000 nM
Cap-YQRVQRVLTYF (all D) [kR-H6-49] | 0.8 | –
Pal-KVEDAFYTLVREIRQYR [kR-H6-4] | > 5000 | –
Lau-WQRVQRVLTYF (all D) [kR-H6-44] | 1 ± 1 | –
HVR peptide: represents the hypervariable region of K-Ras-4B, residues 165 through 183; lacks post-translational modifications (QYRLKKISKEEKTPGCVKI; K-Ras4B; UniProt P01116 165-183, looked up, fragment) [reference compound] | – | Hill coefficient (membrane binding cooperativity) ([10]; Hill equation): 1.106±0.001
Ac-KEKLNSKDGKKKKKKSKTKK-e-Pal [kR-4B-1] | – | cell migration (average number of cells migrated) [2]: inhibition of NCC15 cell migration; GI50 ([1]; Table 2 HVR derivatives): 1450 nM; cell invasion (average number of cells migrated) [3]: inhibition of HCC15 cell invasion; cell motility (average closure) [4]: inhibition of HCC15 cell motility; cooperative interactions with membrane lipids ([10]; phospholipid bilayers): showed the best cooperative interactions with membrane lipids
Ac-ESGPGLNLNSLNKK-e-Pal [HR-1] | – | GTP-bound Ras (fraction of control) [6]: reduction in activated (GTP-bound) Ras; GI50 ([1]; Table 2 HVR derivatives): 250 nM; growth of Ras-dependent cancer cells (cell number, percent of control) [11]: growth inhibition of Ras-dependent cancer cells
Pal-RYQRIQRVLTYFA (all D) [kR-H6-19] | > 1000 | –

Substance | GI50 ([1]; Table 1 helix 6 derivatives) [nM] | other results
Ac-KTPGLNVKIKKK-e-Pal [kR-4A-4] | – | GTP-bound Ras (fraction of control) [6]: reduction in activated (GTP-bound) Ras; GI50 ([1]; Table 2 HVR derivatives): 700 nM; growth inhibition (cell number, percent of control) [12]: growth inhibition
Ac-YRLKKISKEEKTPGK-e-Pal [kR-4A-2] | – | GI50 ([1]; Table 2 HVR derivatives): 1650 nM
Ac-YQRIQRVLTYFAK-e-Pal (all D) [kR-H6-33] | 4.5 ± 1 | –
Pal-LRYQRIERVLTYFADEV (all D) [kR-H6-2] | 300 | –
Pal-e-KAFYTLVRQIRQYRL [kR-H6-28] | 250 ± 50 | –
Ac-AFYTLVREIRQYRK (e-Pal) [kR-H6-8] | 5000 | –
Myr-YQRVQRVLTYW (all D) [kR-H6-40] | 20 ± 10 | –
Ac-DAFYTLVREIRQYRK (e-Pal) [kR-H6-9] | 500 | –
Lau-YQRVQRVLTYW (all D) [kR-H6-39] | 90 ± 15 | –
Pal-YQRVQRVLTYF (all D) [kR-H6-36] | 10 ± 5 | –
Ac-YQRIQRVLTYFK-e-Pal (all D) [kR-H6-11] | 10 | –
Oct-YQRVQRVLTYF (all D) [kR-H6-50] | 4 ± 1 | –
Ac-KKKKSKTKK-e-Pal [kR-4B-7] | – | GI50 ([1]; Table 2 HVR derivatives): 2000 nM
Ac-DGTQGLNLNGLPK-e-Pal [NR-1] | – | GI50 ([1]; Table 2 HVR derivatives): > 10000 nM
Lau-YKRVQRVLTYF (all D) [kR-H6-42] | 300 ± 50 | –
Lau-HQRVQRVLTYF (all D) [kR-H6-43] | 300 ± 50 | –
Pal-YQRKQRVLTYF (all D) [kR-H6-14] | 40 | –
Pal-RYQRIQRVLTYF (all D) [kR-H6-20] | 250 | –
Pal-RYQRIERVLTYFADEV (all D) [kR-H6-1] | 1350 | –
Ac-VEDAFYTLVREIRQYR [kR-H6-16] | > 5000 | –
Ac-GLNVKIKKK-e-Pal [kR-4A-8] | – | GI50 ([1]; Table 2 HVR derivatives): > 10000 nM
Cap-YQRVQRVLTYW (all D) [kR-H6-41] | 180 ± 40 | –
Ac-VEDAFYTLVREIRQYRK (e-Pal) [kR-H6-7] | 2700 | –
Ac-LRYQRIQRVLTYFAK-e-Pal (all D) [kR-H6-31] | 25 ± 10 | –
Ac-RYQRIERVLTYFAK-e-Pal (all D) [kR-H6-23] | 25 ± 10 | fold more toxic to cancer cells than kR-H6-6 ([9]; retroinverso version versus kR-H6-6): 10 fold; growth inhibition (cell number, percent of control) [12]: growth inhibition
Pal-Aib-YQRIQRVLTYF (all D) [kR-H6-35] | 450 ± 50 | –
Ac-AFYTLVREIRQYR [kR-H6-17] | > 5000 | –

Source: US9328142B2, “Lipopeptide inhibitors of RAS oncoproteins” (The United States of America, as represented by The …, priority 2011, dated 2016)
